Activity calls are given as the source filed them. No cut-off for these calls is given here.
Legend:
Rattus norvegicus [1] = assay: Anticonvulsant activity in Wistar rat assessed as protection against maximal electroshock-induced convulsions at 10 mg/kg, ip administered 30 mins before MES challenge; assay type: functional, organism-based; set-up: dose 10 mg/kg
Histamine H3 receptor = Histamine H3 receptor (Homo sapiens, UniProt Q9Y5N1); assay: Displacement of [3H]N-alpha-methylhistamine from human H3 receptor expressed in HEK-293 cell membrane after 90 mins by liquid scintillation counting analysis; assay type: cell membranes, HEK293
Histamine H4 receptor = Histamine H4 receptor (Homo sapiens, UniProt Q9H3N8); assay: Displacement of [3H]histamine from human H4 receptor expressed in Sf9 cell membrane co-transfected with Galphai2 and Gbeta1gamma2 after 60 mins by liquid scintillation counting analysis
Histamine H1 receptor = Histamine H1 receptor (Homo sapiens, UniProt P35367); assay: Displacement of [3H]pyrilamine from human H1 receptor expressed in CHO cell membrane after 120 mins by liquid scintillation counting analysis; assay type: cell membranes
Rattus norvegicus [2] = assay: Anticonvulsant activity in Wistar rat assessed as protection against maximal electroshock-induced convulsions at 1 mg/kg, ip administered 30 mins before MES challenge; assay type: functional, organism-based; set-up: dose 1 mg/kg
Rattus norvegicus [3] = assay: Anticonvulsant activity against PTZ-kindled convulsion Wistar rat model assessed as reduction in convulsions at 10 mg/kg, ip administered 30 mins before PTZ challenge measured for 10 to 30 mins; assay type: functional, organism-based; set-up: dose 10 mg/kg
Rattus norvegicus [4] = assay: Anticonvulsant activity against PTZ-kindled convulsion Wistar rat model assessed as reduction in convulsions at 1 mg/kg, ip administered 30 mins before PTZ challenge measured for 10 to 30 mins; assay type: functional, organism-based; set-up: dose 1 mg/kg
Rattus norvegicus [5] = assay: Anticonvulsant activity against PTZ-kindled convulsion Wistar rat model assessed as prolongation of latency time to myoclonic convulsions at 10 mg/kg, ip administered 30 mins before PTZ challenge; assay type: functional, organism-based; set-up: dose 10 mg/kg
Rattus norvegicus [6] = assay: Anticonvulsant activity against PTZ-kindled convulsion Wistar rat model assessed as decrease in total convulsion time at 10 mg/kg, ip administered 30 mins before PTZ challenge; assay type: functional, organism-based; set-up: dose 10 mg/kg
Rattus norvegicus [7] = assay: Anticonvulsant activity against PTZ-kindled convulsion Wistar rat model assessed as increase in latency time to clonic-tonic convulsions at 10 mg/kg, ip administered 30 mins before PTZ challenge; assay type: functional, organism-based; set-up: dose 10 mg/kg
Rattus norvegicus [8] = assay: Anticonvulsant activity against PTZ-kindled convulsion Wistar rat model assessed as latency for the first atypical behaviours at 10 mg/kg, ip administered 30 mins before PTZ challenge; assay type: functional, organism-based; set-up: dose 10 mg/kg
Rattus norvegicus [9] = assay: Anticonvulsant activity in Wistar rat assessed as protection against maximal electroshock-induced convulsions at 1 to 10 mg/kg, ip administered 30 mins before MES challenge; assay type: functional, organism-based
Rattus norvegicus [10] = assay: Proconvulsant activity in maximal electroshock-induced convulsions Wistar rat model assessed as tonic hindlimb extensions at 1 to 10 mg/kg, ip administered 30 mins before MES challenge; assay type: ADME, organism-based; set-up: dose 1-10 mg/kg, route intraperitoneal; settings: in vivo, 0.5 h
Rattus norvegicus [11] = assay: Anticonvulsant activity against PTZ-kindled convulsion Wistar rat model assessed as reduction in convulsions at 1 to 10 mg/kg, ip administered 30 mins before PTZ challenge measured for 10 to 30 mins; assay type: functional, organism-based

Chain of Histamine H1 receptor (P35367 whole entry): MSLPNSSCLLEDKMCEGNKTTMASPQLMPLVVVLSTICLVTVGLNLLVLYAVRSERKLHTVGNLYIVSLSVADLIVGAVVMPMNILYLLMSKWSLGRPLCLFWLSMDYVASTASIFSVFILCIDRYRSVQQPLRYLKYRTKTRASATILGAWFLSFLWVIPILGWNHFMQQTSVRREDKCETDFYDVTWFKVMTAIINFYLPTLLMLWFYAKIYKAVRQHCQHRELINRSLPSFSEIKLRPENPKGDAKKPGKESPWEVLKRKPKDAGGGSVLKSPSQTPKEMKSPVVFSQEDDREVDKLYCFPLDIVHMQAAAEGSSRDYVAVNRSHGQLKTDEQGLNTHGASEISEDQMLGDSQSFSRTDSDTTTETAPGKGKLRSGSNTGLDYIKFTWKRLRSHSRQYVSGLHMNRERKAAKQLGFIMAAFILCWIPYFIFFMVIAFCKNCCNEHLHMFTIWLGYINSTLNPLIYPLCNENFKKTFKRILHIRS
Chain of Histamine H3 receptor (Q9Y5N1 whole entry): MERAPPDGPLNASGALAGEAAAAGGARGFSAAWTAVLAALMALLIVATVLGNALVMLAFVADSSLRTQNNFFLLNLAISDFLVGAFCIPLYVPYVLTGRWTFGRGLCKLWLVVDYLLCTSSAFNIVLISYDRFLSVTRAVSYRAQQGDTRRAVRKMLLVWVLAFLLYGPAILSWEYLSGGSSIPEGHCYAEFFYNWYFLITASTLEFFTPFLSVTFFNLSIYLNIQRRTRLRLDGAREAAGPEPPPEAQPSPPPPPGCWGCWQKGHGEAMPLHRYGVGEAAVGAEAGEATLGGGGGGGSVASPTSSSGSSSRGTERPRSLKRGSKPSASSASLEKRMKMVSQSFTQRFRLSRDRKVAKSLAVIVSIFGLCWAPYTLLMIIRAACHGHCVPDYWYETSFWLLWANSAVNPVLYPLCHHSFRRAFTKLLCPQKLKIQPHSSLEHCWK

SMILES	Ki (Histamine H3 receptor)	Ki (Histamine H4 receptor)	Ki (Histamine H1 receptor)	Activity (Rattus norvegicus [9])	also measured
O=C1NC(=O)C(c2ccccc2)(c2ccccc2)N1					Activity (Rattus norvegicus [1]): Active
O=C1NC(c2ccccc2)(c2ccccc2)C(=O)N1CCCN1CCCCC1	0.562 µM	490 µM	6.17 µM		Activity (Rattus norvegicus [2]): Active; inhibition (Rattus norvegicus [3]): Active; inhibition (Rattus norvegicus [4]): inactive; Activity (Rattus norvegicus [5]): Active; Activity (Rattus norvegicus [6]): Active; Activity (Rattus norvegicus [7]): Active; Activity (Rattus norvegicus [8]): inactive
Clc1ccc(CCCOCCCN2CCCCC2)cc1 [PITOLISANT]		> 10 µM			Activity (Rattus norvegicus [1]): Active
S=C(NC1CCCCC1)N1CCC(c2cnc[nH]2)CC1 [THIOPERAMIDE]			> 10 µM		

The remaining compounds from weak to strong by Ki (Histamine H4 receptor), led by results:

Ki (Histamine H3 receptor)	Ki (Histamine H4 receptor)	Ki (Histamine H1 receptor)	SMILES	Activity (Rattus norvegicus [9])	also measured
0.00024 µM	1410 µM	10.5 µM	Cc1nnc(-c2cccnc2)n1-c1ccc(OCCCN2CCCCC2)cc1	inactive	
0.0427 µM	331 µM	31.6 µM	C[C@H](NCc1ccc(OCCCN2CCCCC2)cc1)C(N)=O	inactive	
0.000933 µM	20.4 µM	29.5 µM	Cc1nnc(C)n1-c1ccc(OCCCN2CCCCC2)cc1	inactive	
0.0759 µM	9.33 µM	2.24 µM	O=C1NC(c2ccccc2)(c2ccccc2)C(=O)N1Cc1ccc(OCCCN2CCCCC2)cc1	inactive	Activity (Rattus norvegicus [10]): Toxic; inhibition (Rattus norvegicus [11]): inactive
